What was measured:
[1] = tested on: influenza A/H1N1; format: cell-based
[2] = tested on: vaccinia virus; format: cell-based
[3] = tested on: human parainfluenza 3 virus (HPIV3); assay: antiviral testing against human parainfluenza 3 virus; format: cell-based; conditions: commercially available preparation; 100 ng/mL-100 μg/mL
[4] = tested on: herpes simplex virus-1; format: cell-based
[5] = tested on: poliovirus 1; format: cell-based
[6] = at 1-100 μg/mL

Row | SMILES | anti-viral activity against influenza A/California/July/2009 (H1N1) [1] | anti-viral activity against vaccinia virus [2] | anti-viral activity against parainfluenza virus-3 [3] | anti-viral activity against herpes simplex virus-1 [4] | anti-viral activity against poliovirus Sabin-1 [5] | influenza A/H1N1 inhibition by hemagglutination read-out [1] | anti-viral activity against vaccinia virus (in words) [2] | toxicity [6]
1 | COc1cc(C=CC(=O)O)cc(OC)c1O (stereo in doubt) [sinapinic acid] | None of the compounds showed anti-viral activity | None of the compounds showed anti-viral activity | None of the compounds showed anti-viral activity | None of the compounds showed anti-viral activity | None of the compounds showed anti-viral activity | – | – | –
2 | CCOC(=O)C1=C[C@@H](OC(CC)CC)[C@H](NC(C)=O)[C@@H](N)C1 [Tamiflu] | – | – | – | – | – | effective viral inhibition | – | –
3 | O=c1c(O[C@@H]2O[C@H](CO)[C@H](O)[C@H](O)[C@H]2O)c(-c2cc(O)c(O)c(O)c2)oc2cc(O)cc(O)c12 [myricetin-beta-3-galactoside] | None of the compounds showed anti-viral activity | None of the compounds showed anti-viral activity | None of the compounds showed anti-viral activity | None of the compounds showed anti-viral activity | None of the compounds showed anti-viral activity | – | – | –
4 | Oc1cc(O)c2c(c1)O[C@@]1(c3ccc(O)c(O)c3)Oc3cc(O)c4c(c3[C@@H]2[C@H]1O)O[C@H](c1ccc(O)c(O)c1)[C@H](O)C4 [procyanidin A2] | None of the compounds showed anti-viral activity | None of the compounds showed anti-viral activity | None of the compounds showed anti-viral activity | None of the compounds showed anti-viral activity | None of the compounds showed anti-viral activity | – | – | –
5 | O=c1c(O[C@@H]2O[C@H](CO)[C@H](O)[C@H](O)[C@H]2O)c(-c2ccc(O)c(O)c2)oc2cc(O)cc(O)c12 [quercetin-β-3-galactoside] | – | – | – | – | – | – | core) was found to be inactive. | –
6 | CC(C)[C@]12O[C@H]1[C@@H]1O[C@]13[C@]1(O[C@H]1C[C@H]1C4=C(CC[C@@]13C)C(=O)OC4)[C@@H]2O [triptolide] | None of the compounds showed anti-viral activity | None of the compounds showed anti-viral activity | None of the compounds showed anti-viral activity | None of the compounds showed anti-viral activity | None of the compounds showed anti-viral activity | – | – | toxic

— patent publication US11357811B2, “Methods to isolate anti-microbials from fruit or seed extracts” (priority 2012, dated 2022)
